Molecular target: T1, human CB2R (Homo sapiens, UniProt P34972)
T1 construct: host or cells: CHO cells
Assay: CB2R mediated modulation of cAMP synthesis
Format: cell-based
Conditions: found through the use of the above described assays (binding and cAMP); CHO cells expressing human CB2R, forskolin-stimulated cAMP
In short: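 EC50 values reflect inhibition of cAMP made in response to 10 uM forskolin (with 1 mM IBMX, 0.25% BSA) over 30 min at 37 °C in human CB2R-expressing CHO cells. The window runs from forskolin alone to 1 uM CP55940; curves fitted with a four-parameter logistic model.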

T1 sequence (P34972 whole entry): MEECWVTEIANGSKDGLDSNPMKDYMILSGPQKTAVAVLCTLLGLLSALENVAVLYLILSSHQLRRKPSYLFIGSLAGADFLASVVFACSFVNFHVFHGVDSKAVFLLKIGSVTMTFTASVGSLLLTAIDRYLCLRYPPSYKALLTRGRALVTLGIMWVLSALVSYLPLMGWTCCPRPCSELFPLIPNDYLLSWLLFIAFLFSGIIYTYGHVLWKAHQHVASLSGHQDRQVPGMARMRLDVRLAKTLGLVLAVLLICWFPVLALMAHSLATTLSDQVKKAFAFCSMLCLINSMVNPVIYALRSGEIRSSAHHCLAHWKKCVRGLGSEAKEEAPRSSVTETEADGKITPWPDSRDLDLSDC

SMILES | agonistic activity
CC(C)(C(=O)Nc1nc2c(s1)CCCC2)S(=O)(=O)c1ccc(S(C)(=O)=O)cc1 [2-methyl-2-{[4-(methylsulfonyl)phenyl]sulfonyl}-N-(4,5,6,7-tetrahydro-1,3-benzothiazol-2-yl)propanamide] | agonistic activity
CC(C)(C(=O)Nc1cccc(C(F)(F)F)c1)S(=O)(=O)c1ccc(S(C)(=O)=O)cc1 [2-methyl-2-{[4-(methylsulfonyl)phenyl]sulfonyl}-N-[3-(trifluoromethyl)phenyl]propanamide] | agonistic activity
CC(C)(C(=O)Nc1nc(C(F)(F)F)cs1)S(=O)(=O)c1ccc(S(C)(=O)=O)cc1 [2-methyl-2-{[4-(methylsulfonyl)phenyl]sulfonyl}-N-[4-(trifluoromethyl)-1,3-thiazol-2-yl]propanamide] | agonistic activity
CC(C)(C(=O)Nc1cc(C(F)(F)F)ccn1)S(=O)(=O)c1ccc(S(C)(=O)=O)cc1 [2-methyl-2-{[4-(methylsulfonyl)phenyl]sulfonyl}-N-[4-(trifluoromethyl)pyridin-2-yl]propanamide] | agonistic activity
CC(C)(C(=O)Nc1ccc(C(F)(F)F)cn1)S(=O)(=O)c1ccc(S(C)(=O)=O)cc1 [2-methyl-2-{[4-(methylsulfonyl)phenyl]sulfonyl}-N-[5-(trifluoromethyl)pyridin-2-yl]propanamide] | agonistic activity
CC(C)(C(=O)Nc1cccc(C(F)(F)F)n1)S(=O)(=O)c1ccc(S(C)(=O)=O)cc1 [2-methyl-2-{[4-(methylsulfonyl)phenyl]sulfonyl}-N-[6-(trifluoromethyl)pyridin-2-yl]propanamide] | agonistic activity
CC(C)(C(=O)Nc1nc(C(F)(F)F)cs1)S(=O)(=O)c1ccc(C(F)(F)F)nc1 [2-methyl-2-{[6-(trifluoromethyl)pyridin-3-yl]sulfonyl}-N-[4-(trifluoromethyl)-1,3-thiazol-2-yl]propanamide] | agonistic activity
CC(C)(C(=O)Nc1cccc2ccccc12)S(=O)(=O)c1ccc(C(F)(F)F)nc1 [2-methyl-N-1-naphthyl-2-{[6-(trifluoromethyl)pyridin-3-yl]sulfonyl}propanamide] | agonistic activity
Cn1nc(-c2ccccc2)cc1NC(=O)C(C)(C)S(=O)(=O)c1ccc(S(C)(=O)=O)cc1 [2-methyl-N-(1-methyl-3-phenyl-1H-pyrazol-5-yl)-2-{[4-(methylsulfonyl)phenyl]sulfonyl}propanamide] | agonistic activity
CCCc1cc(NC(=O)C(C)(C)S(=O)(=O)c2ccc(C(F)(F)F)nc2)on1 [2-methyl-N-(3-propylisoxazol-5-yl)-2-{[6-(trifluoromethyl)pyridin-3-yl]sulfonyl}propanamide] | agonistic activity
CC(C)(C(=O)Nc1nc(-c2ccccc2)cs1)S(=O)(=O)c1ccc(C(F)(F)F)nc1 [2-methyl-N-(4-phenyl-1,3-thiazol-2-yl)-2-{[6-(trifluoromethyl)pyridin-3-yl]sulfonyl}propanamide] | agonistic activity
Cc1sc(NC(=O)C(C)(C)S(=O)(=O)c2ccc(S(C)(=O)=O)cc2)nc1-c1ccccc1 [2-methyl-N-(5-methyl-4-phenyl-1,3-thiazol-2-yl)-2-{[4-(methylsulfonyl)phenyl]sulfonyl}propanamide] | agonistic activity
Cc1sc(NC(=O)C(C)(C)S(=O)(=O)c2ccc(C(F)(F)F)nc2)nc1-c1ccccc1 [2-methyl-N-(5-methyl-4-phenyl-1,3-thiazol-2-yl)-2-{[6-(trifluoromethyl)pyridin-3-yl]sulfonyl}propanamide] | agonistic activity
Cc1ccc(NC(=O)C(C)(C)S(=O)(=O)c2ccc(C(F)(F)F)nc2)nc1 [2-methyl-N-(5-methylpyridin-2-yl)-2-{[6-(trifluoromethyl)pyridin-3-yl]sulfonyl}propanamide] | agonistic activity
CC(C)(C(=O)Nc1nsc(-c2ccccc2)n1)S(=O)(=O)c1ccc(C(F)(F)F)nc1 [2-methyl-N-(5-phenyl-1,2,4-thiadiazol-3-yl)-2-{[6-(trifluoromethyl)pyridin-3-yl]sulfonyl}propanamide] | agonistic activity
CC(C)(C(=O)Nc1cccc(C(F)(F)F)c1)S(=O)(=O)c1ccc(C(F)(F)F)nc1 [2-methyl-N-[3-(trifluoromethyl)phenyl]-2-{[6-(trifluoromethyl)pyridin-3-yl]sulfonyl}propanamide] | agonistic activity
CC(C)(C(=O)Nc1ccc(C(F)(F)F)cc1)S(=O)(=O)c1ccc(C(F)(F)F)nc1 [2-methyl-N-[4-(trifluoromethyl)phenyl]-2-{[6-(trifluoromethyl)pyridin-3-yl]sulfonyl}propanamide] | agonistic activity
CC(C)(C(=O)Nc1cccc(C(F)(F)F)n1)S(=O)(=O)c1ccc(C(F)(F)F)nc1 [2-methyl-N-[6-(trifluoromethyl)pyridin-2-yl]-2-{[6-(trifluoromethyl)pyridin-3-yl]sulfonyl}propanamide] | agonistic activity

SMILES | agonistic activity
CC(C)(C(=O)Nc1ccc2ccccc2n1)S(=O)(=O)c1ccc(C(F)(F)F)nc1 [2-methyl-N-quinolin-2-yl-2-{[6-(trifluoromethyl)pyridin-3-yl]sulfonyl}propanamide] | agonistic activity
CC(C)(C(=O)Nc1cnc2ccccc2c1)S(=O)(=O)c1ccc(C(F)(F)F)nc1 [2-methyl-N-quinolin-3-yl-2-{[6-(trifluoromethyl)pyridin-3-yl]sulfonyl}propanamide] | agonistic activity
CC(C)C(C(=O)Nc1ccc(C(F)(F)F)cn1)S(=O)(=O)c1ccc(C(F)(F)F)cc1 (centres unmarked) [3-Methyl-2-(4-trifluoromethyl-benzenesulfonyl)-N-(5-trifluoromethyl-pyridin-2-yl)-butyramide] | agonistic activity
CC(C)C(C(=O)Nc1cccc(C(F)(F)F)n1)S(=O)(=O)c1ccc(C(F)(F)F)cc1 (centres unmarked) [3-Methyl-2-(4-trifluoromethyl-benzenesulfonyl)-N-(6-trifluoromethyl-pyridin-2-yl)-butyramide] | agonistic activity
CC(C)(C)c1csc(NC(=O)C2(S(=O)(=O)c3ccc(C(F)(F)F)cc3)CCOCC2)n1 [4-(4-Trifluoromethyl-benzenesulfonyl)-tetrahydro-pyran-4-carboxylic acid (4-tert-butyl-thiazol-2-yl)-amide] | agonistic activity
Cn1nc(C(C)(C)C)cc1NC(=O)C1(S(=O)(=O)c2ccc(C(F)(F)F)cc2)CCOCC1 [4-(4-Trifluoromethyl-benzenesulfonyl)-tetrahydro-pyran-4-carboxylic acid (5-tert-butyl-2-methyl-2H-pyrazol-3-yl)-amide] | agonistic activity
Cc1nc(NC(=O)C2(S(=O)(=O)c3ccc(C(F)(F)F)cc3)CCOCC2)sc1C(C)(C)C [4-(4-Trifluoromethyl-benzenesulfonyl)-tetrahydro-pyran-4-carboxylic acid (5-tert-butyl-4-methyl-thiazol-2-yl)-amide] | agonistic activity
CC(C)(C)c1cc(NC(=O)C2(S(=O)(=O)c3ccc(C(F)(F)F)cc3)CCOCC2)no1 [4-(4-Trifluoromethyl-benzenesulfonyl)-tetrahydro-pyran-4-carboxylic acid (5-tert-butyl-isoxazol-3-yl)-amide] | agonistic activity
O=C(Nc1ccc(C(F)(F)F)cn1)C1(S(=O)(=O)c2ccc(C(F)(F)F)cc2)CCOCC1 [4-(4-Trifluoromethyl-benzenesulfonyl)-tetrahydro-pyran-4-carboxylic acid (5-trifluoromethyl-pyridin-2-yl)-amide] | agonistic activity
O=C(Nc1cccc(C(F)(F)F)n1)C1(S(=O)(=O)c2ccc(C(F)(F)F)cc2)CCOCC1 [4-(4-Trifluoromethyl-benzenesulfonyl)-tetrahydro-pyran-4-carboxylic acid (6-trifluoromethyl-pyridin-2-yl)-amide] | agonistic activity
CC(C)(C(=O)Nc1nc2ccccc2s1)S(=O)(=O)c1ccc(Cl)cc1F [N-1,3-benzothiazol-2-yl-2-[(4-chloro-2-fluorophenyl)sulfonyl]-2-methylpropanamide] | agonistic activity
CC(C)(C(=O)Nc1nc2ccccc2s1)S(=O)(=O)c1ccc(C(F)(F)F)nc1 [N-1,3-benzothiazol-2-yl-2-methyl-2-{[6-(trifluoromethyl)pyridin-3-yl]sulfonyl}propanamide] | agonistic activity
CC(C)(C(=O)Nc1nc2ccccc2o1)S(=O)(=O)c1ccc(Cl)cc1F [N-1,3-benzoxazol-2-yl-2-[(4-chloro-2-fluorophenyl)sulfonyl]-2-methylpropanamide] | agonistic activity
CC(C)(C(=O)Nc1nc2ccccc2o1)S(=O)(=O)c1ccc(S(C)(=O)=O)cc1 [N-1,3-benzoxazol-2-yl-2-methyl-2-{[4-(methylsulfonyl)phenyl]sulfonyl}propanamide] | agonistic activity
CC(C)(C(=O)Nc1nc2ccccc2o1)S(=O)(=O)c1ccc(C(F)(F)F)nc1 [N-1,3-benzoxazol-2-yl-2-methyl-2-{[6-(trifluoromethyl)pyridin-3-yl]sulfonyl}propanamide] | agonistic activity
COc1ccc(S(=O)(=O)C(C)(C)C(=O)Nc2c(C)c(-c3ccccc3)nn2C)cc1 [N-(1,4-dimethyl-3-phenyl-1H-pyrazol-5-yl)-2-[(4-methoxyphenyl)sulfonyl]-2-methylpropanamide] | agonistic activity
Cc1c(-c2ccccc2)nn(C)c1NC(=O)C(C)(C)S(=O)(=O)c1ccc(C(F)(F)F)nc1 [N-(1,4-dimethyl-3-phenyl-1H-pyrazol-5-yl)-2-methyl-2-{[6-(trifluoromethyl)pyridin-3-yl]sulfonyl}propanamide] | agonistic activity

Source: patent US8299111B2, “Compounds which modulate the CB2 receptor” (Boehringer Ingelheim International GmbH, priority 2006, dated 2012)
